# Assay results taken from patent US20050182025A1, “Amidinylphenyl compounds and their use as fungicides” (priority 2002, published 2005).
# How the values were obtained:
# Type in all cases: in vivo
# Septoria nodorum = assay: Test C: preventive spray on wheat seedlings, Septoria glume blotch, disease rating; conditions: wheat seedlings sprayed to run-off, inoculated the following day with Septoria nodorum, 48 h saturated atmosphere then 9 days at 20° C.; test concentration not given
# Summary of the method: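 Preventive test: one day after spraying (to run-off; 200 ppm ≈ 500 g/ha, in acetone/water with 250 ppm surfactant), seedlings received a S. nodorum spore suspension. After 48 h in saturated air and 9 days in a growth chamber, both at 20° C., % disease control versus controls was scored.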
# [1] = system: Erysiphe graminis f. sp. tritici; assay: Test A: preventive spray on wheat seedlings, wheat powdery mildew, disease rating; conditions: wheat seedlings sprayed to run-off, inoculated the following day with Erysiphe graminis f. sp. tritici, rated after 7 days at 20° C.; test concentration not given
# Summary of the method: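 Preventive test: Erysiphe graminis f. sp. tritici spore dust applied one day after run-off spraying of seedlings with acetone/water/surfactant suspension, 200 ppm equating to 500 g/ha. Plants held 7 days at 20 °C; ratings give % disease control versus controls, 100 full, 0 none.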
# Puccinia recondita = assay: Test B: preventive spray on wheat seedlings, wheat leaf rust, disease rating; conditions: wheat seedlings sprayed to run-off, inoculated the following day with Puccinia recondita, 24 h saturated atmosphere then 6 days at 20° C.; test concentration not given
# Summary of the method: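 Preventive test: seedlings inoculated with Puccinia recondita one day after run-off spraying with test suspension (acetone/water, 250 ppm Trem 014; 200 ppm equals 500 g/ha). Rating after 24 h at 20° C in saturation plus 6 days in 20° C growth chamber; 0–100 scale versus controls.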
Structure (SMILES),"Test C disease control rating (100 = 100% disease control, 0 = no disease control relative to the controls) (Septoria nodorum) [%]","Test A disease control rating (100 = 100% disease control, 0 = no disease control relative to the controls) [1] [%]","Test B disease control rating (100 = 100% disease control, 0 = no disease control relative to the controls) (Puccinia recondita) [%]"
CCN(C)C(=S)Nc1cc(C)c(OCCC[Si](C)(CC)CC)cc1C [compound 79],100,0,99
C=CCN(C)C(=S)Nc1cc(Cl)c(OCCC[Si](C)(C)C)c(Cl)c1Cl [compound 83],0,0,9
CCN(C)C(=S)Nc1cc(Cl)c(OCCC[Si](C)(C)CC)cc1C [compound 84],100,100,100
C=CCN(C)C(=S)Nc1cc(Cl)c(OCCC[Si](C)(C)C)cc1C [compound 85],100,100,99
C=CCN(C)C(=S)Nc1cc(C)c(OCCC[Si](C)(C)C)cc1C [compound 86],100,100,99
CCCCN(C)C(=S)Nc1cc(C(C)C)c(OCCC[Si](C)(C)C)cc1C [compound 91],0,0,26
Cc1cc(OCCC[Si](C)(C)C)c(C(C)C)cc1NC(=S)N(C)C(C)C [compound 92],100,100,100
CCCN(C)C(=S)Nc1cc(C(C)C)c(OCCC[Si](C)(C)C)cc1C [compound 93],99,99,100
CCN(C)C(=S)Nc1cc(C(C)C)c(OCCC[Si](C)(C)C)cc1C [compound 94],100,99,100
CC(=Nc1cc(C)c(OCCCC(C)C)cc1C)N(C)C [compound 96],100,0,100
CCCC(CCC(C)C)Oc1cc(C)c(N=C(C)N(C)C)cc1C (stereo not drawn) [compound 97],85,0,45
CC(=Nc1cc(C)c(OCCC(C)CC(C)(C)C)cc1C)N(C)C (stereo not drawn) [compound 98],94,0,60
CCCCCC(CCCCC)Oc1cc(C)c(N=C(C)N(C)C)cc1C [compound 99],0,0,9
CCC(CCC(C)C)Oc1cc(C)c(N=C(C)N(C)C)cc1C (stereo not drawn) [compound 100],76,0,86
CCCC(CCC)Oc1cc(C)c(N=C(C)N(C)C)cc1C [compound 101],100,100,100
CC(=Nc1cc(C)c(OC(C)CCC(C)C)cc1C)N(C)C (stereo not drawn) [compound 102],89,21,95
CC(=Nc1cc(C)c(OC(CCC(C)C)CCC(C)C)cc1C)N(C)C [compound 103],0,31,0
C=C(C)CCC(CC)Oc1cc(C)c(N=C(C)N(C)C)cc1C (stereo not drawn) [compound 104],0,0,23
Cc1cc(SC(C)CCC(C)C)c(C)cc1N=CN(C)C (stereo not drawn) [compound 105],98,97,100
CCN(C)C(=S)Nc1cc(C)c(OCCCC(C)C)cc1C [compound 106],100,100,100
Cc1cc(OCCCC(C)C)c(C)cc1NC(=S)N(C)C [compound 107],99,60,99
CCN(CC)C(=S)Nc1cc(C)c(OCCCC(C)C)cc1C [compound 108],96,87,89
CC(=Nc1cc(Cl)c(OCCCC(C)C)cc1C)N(C)C [compound 110],99,42,97
CC(=Nc1cc(Cl)c(OCCCC(C)C)cc1C)N(C)C [compound 111],100,99,100
CCN(C)C(=S)Nc1cc(Cl)c(OCCCC(C)C)cc1C [compound 112],99,95,99
CCN(CC)C(=S)Nc1cc(Cl)c(OCCCC(C)C)cc1C [compound 113],100,91,99
CCN(C)C(=S)Nc1cc(Cl)c(OCCCC(C)C)cc1C [compound 114],100,99,100
Cc1c(N=CN(C)C)cc(Cl)c(OCCCC(C)C)c1Cl [compound 115],100,85,85
